Laboratory results reported in patent US6245817A, “NPY5 receptor antagonists and methods for using same” (Bayer Corporation, priority 1999, dated 2001).
Read-outs that look alike come from different tables or passages of the source.

Columns and labels:
Human NPY2 receptor = target: T1, Human NPY2 receptor (Homo sapiens, UniProt P49146); assay: Human NPY2 Receptor Binding Assay
T1 sequence (P49146 1-381): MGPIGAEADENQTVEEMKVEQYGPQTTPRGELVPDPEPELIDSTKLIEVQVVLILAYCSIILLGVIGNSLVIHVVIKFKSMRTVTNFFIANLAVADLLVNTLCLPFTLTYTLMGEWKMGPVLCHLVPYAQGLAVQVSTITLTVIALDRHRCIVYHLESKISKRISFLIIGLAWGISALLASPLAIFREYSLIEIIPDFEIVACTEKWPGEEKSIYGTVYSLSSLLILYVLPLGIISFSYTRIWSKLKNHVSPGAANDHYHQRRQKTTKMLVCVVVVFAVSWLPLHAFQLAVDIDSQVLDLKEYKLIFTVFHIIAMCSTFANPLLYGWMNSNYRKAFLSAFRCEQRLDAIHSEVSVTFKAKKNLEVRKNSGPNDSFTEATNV

Human NPY5 Receptor = target: T2, Human NPY5 Receptor (Homo sapiens, UniProt Q15761); assay: Human NPY5 Receptor Binding Assay
T2 sequence (Q15761 1-445): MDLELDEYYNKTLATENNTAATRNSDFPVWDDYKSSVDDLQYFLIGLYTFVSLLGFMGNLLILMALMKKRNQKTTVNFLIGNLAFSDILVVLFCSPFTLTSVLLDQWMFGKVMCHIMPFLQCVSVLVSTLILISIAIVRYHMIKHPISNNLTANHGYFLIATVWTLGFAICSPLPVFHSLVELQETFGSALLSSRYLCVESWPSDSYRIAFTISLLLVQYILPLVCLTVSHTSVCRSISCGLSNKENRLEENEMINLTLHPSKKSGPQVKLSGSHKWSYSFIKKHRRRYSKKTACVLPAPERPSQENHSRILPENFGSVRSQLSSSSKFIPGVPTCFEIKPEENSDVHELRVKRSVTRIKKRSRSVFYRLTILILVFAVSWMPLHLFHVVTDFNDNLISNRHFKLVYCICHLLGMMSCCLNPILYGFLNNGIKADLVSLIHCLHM
Method: Human and Rat NPY5 Receptor Binding Assays
Binding assays are performed on GF/C Millipore 96-well plates pretreated with 0.02% polyethylenimine. The binding buffer is 25 mM Tris, 120 mM NaCl, 5 mM KCl, 1.2 mM KH2 PO4, 2.5 mM CaCl2, 1.2 mM MgSO4, 0.1% BSA and 0.5 mg/ml bacitracin, pH 7.4. Samples consist of membrane protein, 75-100 pM [125I]PYY (porcine, NEN-DuPont) and drug dilution. Nonspecific binding is defined by 1 μM PYY. After a 2 hour incubation at room temperature with constant mixing, the samples are aspirated on a vacuum manifold, and rinsed with ice-cold binding buffer. The amount of radioactivity in each well is quantitated with either gamma counting or liquid scintillation. IC50 values, which correspond to 50% inhibition of specific binding, are determined with non-linear regression analysis.

Rat NPY5 Receptor = target: T3, Rat NPY5 Receptor (Rattus norvegicus, UniProt Q63634); assay: Rat NPY5 Receptor Binding Assay; conditions: [125I]PYY; read-out: rNPY5 IC50
T3 sequence (Q63634 1-445): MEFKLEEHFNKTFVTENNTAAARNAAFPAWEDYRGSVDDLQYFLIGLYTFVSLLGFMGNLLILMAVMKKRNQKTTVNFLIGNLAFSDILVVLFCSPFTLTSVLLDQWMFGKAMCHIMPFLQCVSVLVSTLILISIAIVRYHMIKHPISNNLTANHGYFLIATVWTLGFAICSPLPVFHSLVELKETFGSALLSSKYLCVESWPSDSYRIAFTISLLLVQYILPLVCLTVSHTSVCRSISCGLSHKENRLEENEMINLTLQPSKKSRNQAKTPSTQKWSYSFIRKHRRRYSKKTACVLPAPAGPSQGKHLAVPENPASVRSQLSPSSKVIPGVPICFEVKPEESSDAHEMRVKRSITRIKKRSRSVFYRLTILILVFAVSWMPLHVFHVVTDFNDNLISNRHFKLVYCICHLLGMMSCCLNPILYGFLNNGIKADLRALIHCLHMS

[1] = [125I]PYY, read-out: hPPY2 IC50
[2] = [125I]PYY, read-out: hNPY5 IC50

IC50 (Human NPY2 receptor; [1]) [µM]	IC50 (Human NPY5 Receptor; [2]) [nM]	IC50 (Rat NPY5 Receptor) [nM]	Structure (SMILES)	IC50 (Human NPY2 receptor) [µM]	IC50 (Human NPY5 Receptor; hNPY5 IC50, [125I]PYY) [nM]
> 5	380	–	O=C(CSc1nc2cc([N+](=O)[O-])ccc2[nH]1)Nc1ccc(C2CCCCC2)cc1 [Compound 17, N-(4-Cyclohexyl-phenyl)-2-(5-nitro-1H-benzoimidazol-2-ylsulfanyl)-acetamide]	–	–
> 5	200	–	O=C(CSc1nc2cc([N+](=O)[O-])ccc2[nH]1)Nc1ccc(C(=O)c2ccccc2)cc1 [Compound 18, N-(4-Benzoyl-phenyl)-2-(5-nitro-1H-benzolmidazol-2-ylsulfanyl)-acetamide]	–	–
> 5	710	–	COc1ccc2[nH]c(SCC(=O)Nc3ccc(C4CCCCC4)cc3)nc2c1 [Compound 19, N-(4-Cyclohexyl-phenyl)-2-(5-methoxy-1H-benzolmidazol-2-ylsulfanyl)-acetamide]	–	–
> 5	420	–	COc1ccc2[nH]c(SCC(=O)Nc3ccc(C(=O)c4ccccc4)cc3)nc2c1 [Compound 20, N-(4-Benzoyl-phenyl)-2-(5-methoxy-1H-benzolmidazol-2-ylsulfanyl)-acetamide]	–	–
> 5	430	–	Cc1ccc2[nH]c(SCC(=O)Nc3ccc(C4CCCCC4)cc3)nc2c1 [Compound 21, N-(4-Cyclohexyl-phenyl)-2-(5-methyl-1H-benzolmidazol-2-ylsulfanyl)-acetamide]	–	–
> 5	310	–	Cc1ccc2[nH]c(SCC(=O)Nc3ccc(C(=O)c4ccccc4)cc3)nc2c1 [Compound 22, N-(4-Benzoyl-phenyl)-2-(5-methyl-1H-benzolmidazol-2-ylsulfanyl)-acetamide]	–	–
> 5	> 10000	–	O=C(CSc1ncnc2c1ncn2[C@@H]1O[C@H](CO)[C@H](O)[C@H]1O)Nc1ccc(C2CCCCC2)cc1 [Compound 23, N-(4-Cyclohexyl-phenyl)-2-[9-((2R,3R,4R,5R)-3,4-dihydroxy-5-hydroxymethyl-tetrahydro-furan-2-yl)-9H-purin-6-ylsulfanyl]-acetamide]	–	–
> 5	> 10000	–	O=C(CSc1ncnc2c1ncn2[C@@H]1O[C@H](CO)[C@H](O)[C@H]1O)Nc1ccc(C(=O)c2ccccc2)cc1 [Compound 24, N-(4-Benzoyl-phenyl)-2-[9-((2R,3R,4R,5R)-3,4-dihydroxy-hydroxymethy-tetrahydro-furan-2-yl)-9H-purin-ylsulfanyl]-acetamide]	–	–
> 5	> 10000	–	O=C(CSc1nc2ccccc2c(=O)[nH]1)Nc1ccc(C2CCCCC2)cc1 [Compound 25, N-(4-Cyclohexyl-phenyl)-2-(4-oxo-3,-dihydro-quinazolin-2-ylsulfanyl)-acetamide]	–	–
> 5	> 10000	–	O=C(CSc1ncnc2nc[nH]c12)Nc1ccc(C(=O)c2ccccc2)cc1 [Compound 28, N-(4-Benzoyl-phenyl)-2-(7H-purin-ylsulfanyl)-acetamide]	–	–
> 5	480	–	Cc1ccnc(SCC(=O)Nc2ccc(C(=O)c3ccccc3)cc2)n1 [Compound 30, N-(4-Benzoyl-phenyl)-2-(4-methyl-pyrimidin-2-ylsulfanyl)-acetamide]	–	–
> 5	640	–	O=C(CSC1=NCCS1)Nc1ccc(C2CCCCC2)cc1 [Compound 31]	–	–
> 5	1200	–	O=C(CSC1=NCCS1)Nc1ccc(C(=O)c2ccccc2)cc1 [Compound 32, N-(4-Benzoyl-phenyl)-2-(4,5-dihydro-thiazol-2-ylsulfanyl)-acetamide]	–	–
> 5	69	–	O=C(CSCCO)Nc1ccc(C2CCCCC2)cc1 [Compound 33, N-(4cydohexyl-phenyl)-2-(2-hydroxy-ethylsulfanyl)-acetamide]	–	–
> 5	144	–	O=C(CSCC(O)CO)Nc1ccc(C2CCCCC2)cc1 (stereo not drawn) [Compound 34, N-(4-Cyclohexyl-phenyl)-2-(2,3-dihydroxy-propylsulfanyl)-acetamide]	–	–
> 5	3600	–	O=C(CSc1ncnc2[nH]ncc12)Nc1ccc(C2CCCCC2)cc1 [Compound 35, N-(4-Cyclohexyl-phenyl)-2-(1H-pyrazolo[3,4-d]pyrimidin-4-ylsulfanyl)-acetamide]	–	–
> 5	110	–	O=C(CSc1cccc[n+]1[O-])Nc1ccc(C2CCCCC2)cc1 [Compound 36, N-(4-Cyclohexyl-phenyl)-2-(1-oxy-pyridin-2-ylsulfanyl)-acetamide]	–	–

IC50 (Human NPY2 receptor; [1]) [µM]	IC50 (Human NPY5 Receptor; [2]) [nM]	IC50 (Rat NPY5 Receptor) [nM]	Structure (SMILES)	IC50 (Human NPY2 receptor) [µM]	IC50 (Human NPY5 Receptor; hNPY5 IC50, [125I]PYY) [nM]
> 5	1700	–	O=C(CSc1nc2ccccc2s1)Nc1ccc(C2CCCCC2)cc1 [Compound 37, 2-(Benzothiazol-2-ylsulfanyl)-N-(4-cyclohexylphenyl)-acetamide]	–	–
> 5	> 10000	–	O=C(CSc1nc2ccccc2o1)Nc1ccc(C2CCCCC2)cc1 [Compound 38, 2-(Benzooxazol-2-ylsulfanyl)-N-(-Cyclohexyl-phenyl)-acetamide]	–	–
> 5	490	–	O=C(CSc1ncccn1)Nc1ccc(C2CCCCC2)cc1 [Compound 39, N-(-Cyclohexyl-phenyl)-2-(pyrimidin-2-ylsulfanyl)-acetamide]	–	–
> 5	690	–	O=C(CSCCO)Nc1ccc(C(=O)c2ccccc2)cc1 [Compound 40, N-(4-Benzoyl-phenyl)-2-(2-hydroxy-ethylsulfanyl)-acetamide]	–	–
–	–	–	O=C(CSc1ccncc1)Nc1ccc(C(=O)c2ccccc2)cc1 [Compound 41, N-(4-Benzoyl-phenyl)-2-(pyridin-4-ylsulfanyl)-acetamide]	> 5	330
> 5	1500	–	O=C(CSCC(O)CO)Nc1ccc(C(=O)c2ccccc2)cc1 (stereo not drawn) [Compound 42, N-(4-Benzoyl-phenyl)-2-(2,3-dihydroxy-propylsulfanyl)-acetamide]	–	–
> 5	1300	–	O=C(CSc1ncnc2[nH]ncc12)Nc1ccc(C(=O)c2ccccc2)cc1 [Compound 43, N-(4-Benzoyl-phenyl)-2-(1H-pyrazolo[3,4-d]pyrimidin-4-ylsulfanyl)-acetamide]	–	–
> 5	320	–	O=C(CSc1ccccn1)Nc1ccc(C(=O)c2ccccc2)cc1 [Compound 44, N-(4-Benzoyl-phenyl)-2-(pyridin-2-ylsulfanyl)-acetamide]	–	–
> 5	170	–	Cn1nnnc1SCC(=O)Nc1ccc(C(=O)c2ccccc2)cc1 [Compound 45, N-(4-Benzoyl-phenyl)-2-(1-methyl-1H-tetrazol-5-ylsulfanyl)-acetamide]	–	–
–	910	2800	Cn1c(CO)cnc1SCC(=O)Nc1ccc(C(=O)c2ccccc2)cc1 [Compound 121, N-(4-Benzoyl-phenyl)-2-(5-hydroxymethyl-1-methyl-1H-imidazol-2-ylsulfanyl)acetamide]	–	–
–	1500	> 1000	COC(=O)c1cnc(SCC(=O)Nc2ccc(C(=O)c3ccccc3)cc2)n1C [Compound 122, 2-[(4-Benzoyl-phenylcarbamoyl)-methylsulfanyl]-3-methyl-3H-imidazole-4-carboxylic acid methyl ester]	–	–
–	420	530	O=C(CSc1nnc(NC2CCCCC2)s1)Nc1ccc(C(=O)c2ccccc2)cc1 [Compound 123, N-(4-Benzoyl-phenyl)-2-(5-cyclohexylamino [1,3,4]thiadiazol-2-ylsulfanyl)-acetamide]	–	–
–	> 1000	2300	O=C(CSc1nnc(CSCCOc2ccc(Cl)cc2Cl)o1)Nc1ccc(C(=O)c2ccccc2)cc1 [Compound 124]	–	–
–	1000	360	CC(Sc1nnnn1C)C(=O)Nc1ccc(C(C)(C)C)cc1 (stereo not drawn) [Compound 125, N-(4-tert-Butyl-phenyl)-2-(1-methyl-1H-tetrazol-5-ylsulfanyl)-propionamide]	–	–
–	59	50	CC(Sc1nnnn1C)C(=O)Nc1ccc(C2CCCCC2)cc1 (stereo not drawn) [Compound 127, N-(4-Cyclohexyl-phenyl)-2-(1-methyl-1H-tetrazol-5-ylsulfanyl)-propionamide]	–	–
–	160	150	Cn1nnnc1SCC(=O)Nc1ccc2c(c1)Cc1ccccc1-2 [Compound 130, N-(9H-Fluoren-2-yl)-2-(1-methyl-1H-tetrazol-5-ylsulfanyl)-acetamide]	–	–
